Several values for one entry are separate records, joined by “and”; a condition that tells them apart may be missing. Equal values may be shown once.
Test system: BDF1 mice, Adenocarcinoma 755 s.c., tumor weight T/C
Experiment: NCI In Vivo Anticancer Drug Screen. Data for tumor model Adenocarcinoma 755 (subcutaneous) in B6D2F1 (BDF1) mice
Conditions: endpoint: mean tumor weight, higher = larger tumour
How it was run: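 Values express treated (T) relative to vehicle-dosed control (C) animals, based on survival or tumour size measured after compound treatment of mice bearing a transplanted tumour.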

[1] = dose: 25.0 mg/kg/injection, schedule: Q01DX011 (ip), vehicle: carboxymethylcellulose (CMC)
[2] = dose: 50.0 mg/kg/injection, schedule: Q01DX011 (ip), vehicle: carboxymethylcellulose (CMC)
[3] = dose: 100.0 mg/kg/injection, schedule: Q01DX011 (ip), vehicle: carboxymethylcellulose (CMC)
[4] = dose: 200.0 mg/kg/injection, schedule: Q01DX011 (ip), vehicle: carboxymethylcellulose (CMC)
[5] = dose: 8.0 mg/kg/injection, schedule: Q01DX011 (ip), vehicle: carboxymethylcellulose (CMC)
[6] = dose: 30.0 mg/kg/injection, schedule: Q01DX011 (ip), vehicle: carboxymethylcellulose (CMC)

CN(C)c1ccc(Nc2c3ccccc3nc3ccccc23)cc1
T/C (dose: 9.0 mg/kg/injection, schedule: Q01DX011 (ip), vehicle: saline): 70 % of control
T/C (dose: 18.0 mg/kg/injection, schedule: Q01DX011 (ip), vehicle: saline): 91 % of control
T/C (dose: 35.0 mg/kg/injection, schedule: Q01DX011 (ip), vehicle: saline): 75 % of control
T/C (dose: 70.0 mg/kg/injection, schedule: Q01DX011 (ip), vehicle: saline): 39 % of control

CC(C)CCSc1nc(N)nc2nc[nH]c12
T/C (dose: 4.68 mg/kg/injection, schedule: Q01DX011 (ip), vehicle: methylcellulose (MC)): 59 % of control
T/C (dose: 9.37 mg/kg/injection, schedule: Q01DX011 (ip), vehicle: methylcellulose (MC)): 29 % of control
T/C (dose: 18.75 mg/kg/injection, schedule: Q01DX011 (ip), vehicle: methylcellulose (MC)): 21 % of control
T/C (dose: 37.5 mg/kg/injection, schedule: Q01DX011 (ip), vehicle: methylcellulose (MC)): 12 % of control

C/C(=N\NC(=O)c1ccncc1)c1cc(Cl)ccc1Cl
T/C (dose: 30.0 mg/kg/injection, schedule: Q01DX011 (ip), vehicle: methylcellulose (MC)): 51 % of control
T/C (dose: 60.0 mg/kg/injection, schedule: Q01DX011 (ip), vehicle: methylcellulose (MC)): 27 % of control

CCCCCCCCCCCCNCCCCCCCCCCCC
T/C (dose: 2.5 mg/kg/injection, schedule: Q01DX011 (ip), vehicle: other): 41 % of control

CCSc1nc(Cl)cc(Sc2nc(N)nc3nc[nH]c23)n1
T/C (dose: 2.5 mg/kg/injection, schedule: Q01DX011 (ip), vehicle: methylcellulose (MC)): 84 % of control
T/C (dose: 5.0 mg/kg/injection, schedule: Q01DX011 (ip), vehicle: methylcellulose (MC)): 65 % of control
T/C (dose: 10.0 mg/kg/injection, schedule: Q01DX011 (ip), vehicle: methylcellulose (MC)): 80 % of control
T/C (dose: 12.5 mg/kg/injection, schedule: Q01DX011 (ip), vehicle: carboxymethylcellulose (CMC)): 82 % of control
T/C (dose: 15.0 mg/kg/injection, schedule: Q01DX011 (ip), vehicle: methylcellulose (MC)): 40 % of control
T/C (dose: 18.0 mg/kg/injection, schedule: Q01DX011 (ip), vehicle: methylcellulose (MC)): 6 % of control
T/C [1]: 69 % of control
T/C (dose: 36.0 mg/kg/injection, schedule: Q01DX011 (ip), vehicle: methylcellulose (MC)): 20 % of control
T/C [2]: 24 % of control
T/C (dose: 72.0 mg/kg/injection, schedule: Q01DX011 (ip), vehicle: methylcellulose (MC)): 16 % of control
T/C [3]: 1 % of control
T/C (dose: 144.0 mg/kg/injection, schedule: Q01DX011 (ip), vehicle: methylcellulose (MC)): 15 % of control
T/C [4]: 3 % of control

CCCCNC(=O)c1n[se]nc1NC(N)=O
T/C (dose: 4.0 mg/kg/injection, schedule: Q01DX011 (ip), vehicle: carboxymethylcellulose (CMC)): 94 % of control
T/C [5]: 91 % of control
T/C (dose: 16.0 mg/kg/injection, schedule: Q01DX011 (ip), vehicle: carboxymethylcellulose (CMC)): 61 % of control
T/C (dose: 37.5 mg/kg/injection, schedule: Q01DX011 (ip), vehicle: carboxymethylcellulose (CMC)): 166 % of control
T/C [2]: 119 % of control

CN(C)c1nc(S(=O)(=O)N(C)C)nc2nc[nH]c12
T/C [1]: 115 % of control
T/C (dose: 75.0 mg/kg/injection, schedule: Q01DX011 (ip), vehicle: carboxymethylcellulose (CMC)): 117 % of control
T/C (dose: 225.0 mg/kg/injection, schedule: Q01DX011 (ip), vehicle: carboxymethylcellulose (CMC)): 95 % of control

COC(=O)C1C(O)CCC2CN3CCc4c([nH]c5ccccc45)C3CC21 (stereo unspecified)
T/C (dose: 150.0 mg/kg/injection, schedule: Q01DX011 (ip), vehicle: carboxymethylcellulose (CMC)): 75 % of control

Nc1c(Br)cc2c(c1Br)Cc1cc([N+](=O)[O-])ccc1-2
T/C (dose: 1.5 mg/kg/injection, schedule: Q01DX011 (ip), vehicle: carboxymethylcellulose (CMC)): 85 % of control
T/C (dose: 3.0 mg/kg/injection, schedule: Q01DX011 (ip), vehicle: carboxymethylcellulose (CMC)): 63 % of control
T/C (dose: 6.0 mg/kg/injection, schedule: Q01DX011 (ip), vehicle: carboxymethylcellulose (CMC)): 43 % of control
T/C (dose: 6.0 mg/kg/injection, schedule: Q01DX011 (ip), vehicle: other): 94 % of control
T/C (dose: 6.25 mg/kg/injection, schedule: Q01DX011 (ip), vehicle: saline): 109 % of control
T/C (dose: 12.0 mg/kg/injection, schedule: Q01DX011 (ip), vehicle: carboxymethylcellulose (CMC)): 22 % of control
T/C (dose: 12.5 mg/kg/injection, schedule: Q01DX011 (ip), vehicle: saline): 69 % of control
T/C [1]: 7 % of control
T/C (dose: 25.0 mg/kg/injection, schedule: Q01DX011 (ip), vehicle: saline): 82 % of control
T/C (dose: 27.5 mg/kg/injection, schedule: Q01DX011 (ip), vehicle: saline): 46 % of control
T/C [2]: 12 % of control
T/C (dose: 50.0 mg/kg/injection, schedule: Q01DX011 (ip), vehicle: saline): 57 % of control
T/C (dose: 50.0 mg/kg/injection, schedule: Q01DX011 (oral), vehicle: saline): 90 % of control
T/C (dose: 55.0 mg/kg/injection, schedule: Q01DX011 (ip), vehicle: saline): 29 % of control
T/C [3]: 19 % of control
T/C (dose: 100.0 mg/kg/injection, schedule: Q01DX011 (ip), vehicle: saline): 63 % of control
T/C (dose: 100.0 mg/kg/injection, schedule: Q01DX011 (oral), vehicle: saline): 72 % of control
T/C (dose: 110.0 mg/kg/injection, schedule: Q01DX011 (ip), vehicle: other): 17 % of control and 30 % of control
T/C (dose: 110.0 mg/kg/injection, schedule: Q01DX011 (ip), vehicle: saline): 21 % of control and 38 % of control
T/C [4]: 8 % of control
T/C (dose: 200.0 mg/kg/injection, schedule: Q01DX011 (ip), vehicle: saline): 46 % of control
T/C (dose: 200.0 mg/kg/injection, schedule: Q01DX011 (oral), vehicle: saline): 91 % of control
T/C (dose: 225.0 mg/kg/injection, schedule: Q01DX011 (ip), vehicle: other): 17 % of control and 32 % of control
T/C (dose: 400.0 mg/kg/injection, schedule: Q01DX011 (oral), vehicle: saline): 117 % of control
T/C (dose: 450.0 mg/kg/injection, schedule: Q01DX011 (ip), vehicle: other): 6 % of control
T/C (dose: 800.0 mg/kg/injection, schedule: Q01DX011 (oral), vehicle: saline): 66 % of control
T/C (dose: 900.0 mg/kg/injection, schedule: Q01DX011 (ip), vehicle: other): 15 % of control

Cn1c(=O)c2ncn(CC(=O)O)c2n(C)c1=O
T/C [6]: 45 % of control
T/C (dose: 60.0 mg/kg/injection, schedule: Q01DX011 (ip), vehicle: carboxymethylcellulose (CMC)): 156 % of control
T/C (dose: 120.0 mg/kg/injection, schedule: Q01DX011 (ip), vehicle: carboxymethylcellulose (CMC)): 99 % of control
T/C (dose: 240.0 mg/kg/injection, schedule: Q01DX011 (ip), vehicle: carboxymethylcellulose (CMC)): 120 % of control

CN(CC(=O)O)C(=N)N
T/C (dose: 1500.0 mg/kg/injection, schedule: Q#A X022 (ip), vehicle: water): 86 % of control
T/C (dose: 2500.0 mg/kg/injection, schedule: Q#A X022 (ip), vehicle: water): 66 % of control

CNS(=O)(=O)c1ncnc2nc[nH]c12
T/C (dose: 3.1 mg/kg/injection, schedule: Q01DX011 (ip), vehicle: methylcellulose (MC)): 77 % of control
T/C (dose: 6.2 mg/kg/injection, schedule: Q01DX011 (ip), vehicle: methylcellulose (MC)): 36 % of control
T/C [5]: 51 % of control
T/C (dose: 10.0 mg/kg/injection, schedule: Q01DX011 (ip), vehicle: carboxymethylcellulose (CMC)): 20 % of control
T/C (dose: 12.5 mg/kg/injection, schedule: Q01DX011 (ip), vehicle: methylcellulose (MC)): 44 % of control
T/C (dose: 15.0 mg/kg/injection, schedule: Q01DX011 (ip), vehicle: carboxymethylcellulose (CMC)): 28 % of control
T/C (dose: 20.0 mg/kg/injection, schedule: Q01DX011 (ip), vehicle: carboxymethylcellulose (CMC)): 2 % of control
T/C (dose: 25.0 mg/kg/injection, schedule: Q01DX011 (ip), vehicle: methylcellulose (MC)): 5 % of control
T/C [6]: 16 % of control
T/C (dose: 40.0 mg/kg/injection, schedule: Q01DX011 (ip), vehicle: carboxymethylcellulose (CMC)): 2 % of control

— PubChem BioAssay AID180 (DTP/NCI, 2004)
